Among the test systems are TK-10; NCI-H460; HT-29; OVCAR-8; OVCAR-3; LOX IMVI; 786-0; A549; COLO 205; RXF 393; EKVX; K562; DU-145; RPMI-8226; MDA-MB-435; HOP-62; NCI-H522; MOLT-4; HCC 2998; SK-MEL-28.
What all share (experiment): NCI-60 cell line screen, 48 h

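Five concentrations, 48 hours, 96-well plates. Here, GI50 denotes the concentration required for 50% inhibition of growth.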 Calls of active or inactive are those of the source. Cut-off read from the data, not from the text of the source: active = GI50 up to about 1.1 µM and inactive = higher.

Take `Nc1nc(N)c(Cn2ccnc2)c(O)n1`: the GI50 in the experiment with TK-10, with NCI-H460, in the experiment on HT-29, with OVCAR-8, in the experiment with OVCAR-3 and with LOX IMVI was > 100 µM (inactive) in each case. Further, the GI50 in the experiment on 786-0 was > 100 µM (inactive); in the experiment with A549, > 100 µM (inactive); in the experiment with COLO 205, > 100 µM (inactive); in the experiment on RXF 393, > 100 µM (inactive); with EKVX it was > 100 µM (inactive); in the experiment with K562, 0.049 µM (active). Also, the GI50 in the experiment on DU-145, with RPMI-8226, in the experiment with MDA-MB-435, with HOP-62 and with NCI-H522 was > 100 µM (inactive) in each case.
In the case of `c1ccc(-c2cnc3nc4ccccc4nc3n2)cc1`, the GI50 in the experiment with MOLT-4 was 1.31 µM (inactive); in the experiment with HCC 2998 it was 11.7 µM (inactive); in the experiment on TK-10 it was 4.2 µM (inactive); in the experiment on NCI-H460, 2.96 µM (inactive); with HT-29, 7.05 µM (inactive); in the experiment with OVCAR-8, 1.98 µM (inactive). Also, the GI50 with OVCAR-3 was 1.16 µM (inactive); with LOX IMVI, 3.25 µM (inactive); with SK-MEL-28, 14.7 µM (inactive); in the experiment with 786-0, 3.9 µM (inactive); in the experiment with A549 it was 10 µM (inactive); with COLO 205, 2.15 µM (inactive). Further, the GI50 in the experiment with EKVX was 2.88 µM (inactive); in the experiment with K562, 2.51 µM (inactive); in the experiment on DU-145, 3.83 µM (inactive); in the experiment on RPMI-8226 it was 1.32 µM (inactive); in the experiment on MDA-MB-435, 1.58 µM (inactive); in the experiment on HOP-62 it was 13.9 µM (inactive). Moreover, the GI50 in the experiment with NCI-H522 is 3.5 µM (inactive).
Regarding `S=C(N/N=C(/c1ccccc1)c1ccccn1)N1CCCCCC1`, the GI50 was < 0.0134 µM (active) in the experiment with MOLT-4; 0.176 µM (active) in the experiment on HCC 2998; 0.112 µM (active) in the experiment with TK-10; < 0.0283 µM (active) in the experiment on NCI-H460; < 0.0141 µM (active) in the experiment on HT-29; < 0.0256 µM (active) in the experiment on OVCAR-8. Moreover, the GI50 was 0.01 µM (active) in the experiment with OVCAR-3; < 0.0265 µM (active) in the experiment on 786-0; < 0.0371 µM (active) in the experiment with A549; < 0.018 µM (active) in the experiment on COLO 205; 0.67 µM (active) in the experiment on RXF 393; < 0.0329 µM (active) with EKVX. Besides, the GI50 in the experiment on K562 is < 0.0115 µM (active); with DU-145, 0.369 µM (active); in the experiment on MDA-MB-435, 0.0843 µM (active); with HOP-62, 0.0514 µM (active); with NCI-H522, 0.0731 µM (active).
As for `S=P(C1CCCCC1)(C1CCCCC1)C(c1cccnc1)N1CCCC1` (stereo not drawn), the GI50 in the experiment with MOLT-4 was 24 µM (inactive); with TK-10, 18.5 µM (inactive); with NCI-H460, 20.2 µM (inactive); in the experiment on HT-29 it was 33.8 µM (inactive); with OVCAR-8, 23.8 µM (inactive); in the experiment on OVCAR-3, 92.5 µM (inactive). Further, the GI50 was 7.18 µM (inactive) with LOX IMVI; > 100 µM (inactive) in the experiment with SK-MEL-28; 17.6 µM (inactive) in the experiment on 786-0; 17.8 µM (inactive) with A549; 18.9 µM (inactive) with COLO 205; 18.6 µM (inactive) in the experiment with RXF 393. The GI50 in the experiment with EKVX was 19.1 µM (inactive); in the experiment on K562 it was 21.2 µM (inactive); with DU-145 it was 16.1 µM (inactive); with RPMI-8226, 15.5 µM (inactive); in the experiment on MDA-MB-435, 18.4 µM (inactive); in the experiment with HOP-62, 16.3 µM (inactive). The GI50 in the experiment with NCI-H522 is 20.6 µM (inactive).
As for `O=C1/C(=C/c2ccco2)N=C2Sc3c([nH]cnc3=O)N12`, the GI50 in the experiment on MOLT-4, with TK-10, with HT-29, in the experiment with OVCAR-8, in the experiment on OVCAR-3 and in the experiment with LOX IMVI was > 100 µM (inactive) each time. The GI50 in the experiment with SK-MEL-28, in the experiment on 786-0, in the experiment with A549, in the experiment on COLO 205, in the experiment with RXF 393 and with EKVX was > 100 µM (inactive) each time. Moreover, the GI50 in the experiment on K562, with DU-145, with RPMI-8226, with MDA-MB-435, in the experiment with HOP-62 and with NCI-H522 was > 100 µM (inactive) each time.
As to `O=[N+]([O-])c1ccc(Cl)c(CNc2ncnc3c2ncn3C2CCCCO2)c1` (stereo not drawn), the GI50 with MOLT-4 is 26.1 µM (inactive); with TK-10, 31 µM (inactive); in the experiment with NCI-H460, 15.3 µM (inactive); with HT-29 it was 32.4 µM (inactive); in the experiment on OVCAR-8, 53.6 µM (inactive); in the experiment on OVCAR-3 it was 34.3 µM (inactive). For the same molecule, the GI50 in the experiment on LOX IMVI is 56.4 µM (inactive); with SK-MEL-28 it was 89.5 µM (inactive); in the experiment with 786-0, 63.8 µM (inactive); in the experiment on A549 it was 41.7 µM (inactive); with COLO 205 it was 42.2 µM (inactive); in the experiment on RXF 393 it was 14.9 µM (inactive). Further, the GI50 with EKVX was 77.1 µM (inactive); in the experiment on K562, 31.4 µM (inactive); in the experiment with DU-145, 29.1 µM (inactive); with RPMI-8226 it was 38.6 µM (inactive); in the experiment on MDA-MB-435, 13.9 µM (inactive); in the experiment on HOP-62, 48.4 µM (inactive). The GI50 in the experiment on NCI-H522 is 32.8 µM (inactive).
For the molecule `COc1cc(OC)nc(-n2c(N)c(C#N)c3ccc([N+](=O)[O-])cc3c2=O)n1`, the GI50 with MOLT-4, in the experiment on HCC 2998, in the experiment on TK-10, with NCI-H460, with HT-29 and in the experiment on OVCAR-8 was > 100 µM (inactive) throughout. Also, the GI50 in the experiment on OVCAR-3, with LOX IMVI, in the experiment with SK-MEL-28, with 786-0, in the experiment with A549 and in the experiment on COLO 205 was > 100 µM (inactive) each time. In addition, the GI50 in the experiment on EKVX is > 100 µM (inactive); with DU-145 it was > 100 µM (inactive); in the experiment with RPMI-8226, > 100 µM (inactive); in the experiment with MDA-MB-435, > 100 µM (inactive); with HOP-62, > 100 µM (inactive); in the experiment on NCI-H522 it was 18.3 µM (inactive).
Take `CN(C)/C=N\c1c(Br)cc(Br)c2nonc12`: the GI50 with MOLT-4, in the experiment on HCC 2998, in the experiment with TK-10, in the experiment on NCI-H460, with HT-29 and with OVCAR-8 was > 100 µM (inactive) each time. For the same molecule, the GI50 in the experiment on OVCAR-3, with SK-MEL-28, with 786-0, in the experiment with A549, in the experiment on COLO 205 and in the experiment on RXF 393 was > 100 µM (inactive) in each case. Further, the GI50 with EKVX, in the experiment on K562, in the experiment with DU-145, in the experiment with RPMI-8226, in the experiment on MDA-MB-435 and in the experiment with HOP-62 was > 100 µM (inactive) throughout. In the experiment on NCI-H522, the GI50 was > 100 µM (inactive).
Turning to `NC(=O)c1c[se]c(C2OC(CO)C(O)C2O)n1` (stereo not drawn), the GI50 in the experiment with MOLT-4 is 0.568 µM (active); with HCC 2998 it was 32.4 µM (inactive); with TK-10, > 91.4 µM (inactive); in the experiment on NCI-H460, 17.5 µM (inactive); with HT-29 it was 3.55 µM (inactive); with OVCAR-8, 4.31 µM (inactive). For the same molecule, the GI50 is 0.74 µM (active) in the experiment on OVCAR-3; 32.1 µM (inactive) with LOX IMVI; 2.61 µM (inactive) in the experiment with SK-MEL-28; 2.44 µM (inactive) with 786-0; 8.67 µM (inactive) with A549; 1.22 µM (inactive) in the experiment with COLO 205. Moreover, the GI50 is > 79.1 µM (inactive) in the experiment with EKVX; 0.627 µM (active) in the experiment on K562; 31.8 µM (inactive) in the experiment with DU-145; 6.43 µM (inactive) in the experiment on RPMI-8226; 7.29 µM (inactive) in the experiment on MDA-MB-435; 10.2 µM (inactive) in the experiment on HOP-62. Moreover, the GI50 in the experiment with NCI-H522 was 6.25 µM (inactive).
In the case of `Cc1ccc(N(Cc2ccccc2)Cc2ccccc2)cc1`, the GI50 with MOLT-4 was 23.8 µM (inactive); with TK-10, > 100 µM (inactive); with NCI-H460 it was > 100 µM (inactive); in the experiment on HT-29 it was 29.9 µM (inactive); in the experiment on OVCAR-8, > 100 µM (inactive); with OVCAR-3 it was 32.8 µM (inactive). Further, the GI50 in the experiment on LOX IMVI was 34 µM (inactive); in the experiment with SK-MEL-28, 54.2 µM (inactive); with 786-0, 73.3 µM (inactive); in the experiment with A549 it was 36.9 µM (inactive); with COLO 205, 24.3 µM (inactive); in the experiment on RXF 393 it was 59 µM (inactive). The GI50 was 35.8 µM (inactive) in the experiment with EKVX; 55.8 µM (inactive) with K562; > 100 µM (inactive) with DU-145; 18.5 µM (inactive) in the experiment on RPMI-8226; 37.2 µM (inactive) in the experiment on MDA-MB-435; 26.7 µM (inactive) with HOP-62. Besides, in the experiment with NCI-H522, the GI50 was 22 µM (inactive).
As to `COc1ccc(Cc2ccc3nc(O)cc(C)c3c2)cc1S(=O)(=O)O`, the GI50 in the experiment with MOLT-4, in the experiment with TK-10, with NCI-H460, in the experiment with HT-29, in the experiment with OVCAR-8 and in the experiment with OVCAR-3 was > 100 µM (inactive) in each case. The GI50 with LOX IMVI, in the experiment on SK-MEL-28, with 786-0, with A549, in the experiment with COLO 205 and in the experiment on RXF 393 was > 100 µM (inactive) throughout. For the same molecule, the GI50 in the experiment on EKVX, with K562, in the experiment with DU-145, with RPMI-8226, in the experiment on MDA-MB-435 and with HOP-62 was > 100 µM (inactive) throughout. The GI50 with NCI-H522 is > 100 µM (inactive).

Source of the values: ChEMBL document CHEMBL1201862, “PubChem BioAssay data set” (2004).
